The results in this text go back to US20040087606A1, “Shivering suppression during cooling to lower body temperature” (priority 2002, published 2004).

Common to all, as to assay type: in vivo, human
Data set [1] relates to healthy subjects. Nature of the data set: Phase 4: as Phase 3a, meperidine plus oral buspirone. The method, then:
(§1) Five contact pads are applied to the thighs, back and abdomen of each subjects, and actively cooled. Temperatures are measured in the same manner as in Phase 1 except that the rectal temperature probe is connected to a control module and the rectal temperature signal is used by the control module to adjust inlet water temperature via a feedback control algorithm to achieve a target core body temperature of 34.5° C.
(§2) A single oral dose of acetaminophen (1000 mg), is administered within 20 minutes prior to treatment. A bolus of IV meperidine (Demerol®, 50-100 mg) is given within 5 minutes of the start of active cooling. Additional doses of meperidine are administered to maintain comfort and to prevent shivering. Active cooling and maintenance of hypothermia continues for five hours. As in the Phase 1, the subjects are actively re-warmed to a tympanic temperature of 36° C. prior to termination of the experiment. Shivering, comfort, oxyhemoglobin saturation, and arterial blood pressure are recorded as in Phase 1.
Phase 4 proceeds as described for Phase 3a, except as noted. In addition to meperidine (Demerol®), subjects are also given an oral dose of 30-60 mg buspirone.

For data set [2], the system named is healthy subjects. Kind of data set: Phase 3a: contact-pad cooling to target core temperature 34.5° C. with meperidine.
Text: (§3) Mild hypothermia is induced and maintained in healthy subjects for up to several hours. Each volunteer is cooled using contact pads (Arctic Sun Energy Transfer Pads™, Medivance, Inc., Louisville, Colo., U.S.A.). Contact pads are applied to contact the subjects, and water at a controlled temperature is delivered to and circulated through the contact pads to effect the controlled cooling of each volunteer.
as §1, §2

Data set [3] has as its system healthy subjects. Nature of the data set: Phase 5: as Phase 3a, meperidine plus IV ondansetron. The method, then: as §1, §2
Phase 5 proceeds as described for Phase 3a, except as noted. The temperature of water circulated to the contact pads is controlled to achieve a target core body temperature of 34.5° C. In addition to meperidine (Demerol®), subjects are also given an IV dose of 8 mg ondansetron (hydrochloride salt, Glaxo Wellcome).

Data set [4] relates to healthy subjects. Kind of data set: Phase 1: induced mild hypothermia by contact-pad cooling with meperidine for shivering suppression.
Text: as §3
(§4) Four contact pads are applied to the thighs and chest of each subject and each subject is rapidly cooled with an objective of reducing core body temperature to 34-35° C. Core body temperatures are measured at the tympanic membrane and the rectum. Mean skin-surface temperature is determined from the weighted average of calf, thigh, chest, and upper arm skin temperatures. Thermoregulatory vasoconstriction is evaluated using forearm minus fingertip skin-temperature gradients. Temperatures are measured using Mon-a-Therm™ themocouple probes connected to Mallinckrodt Model 6510 two-channel electronic thermometers having an accuracy near 0.1° C. (Mallinckrodt Anesthesia Products, St. Louis, Mo., U.S.A.). Temperatures are recorded before cooling is started (i.e., baseline) and subsequently at 15-minute intervals.
(§5) Each of subjects 1-5 is administered a single dose of acetomiophen (1000 mg) within 20 minutes prior to treatment and is administered a bolus of intravenous (IV) meperidine (Demerol®, 25-75 mg) within 5 minutes of the start of cooling. Subjects also receive initial doses of chlorpromazine (Thorazine®12.5-25 mg, IV). Active cooling is initiated and the inlet water temperature is controlled to achieve a target tympanic temperature between 34° C. and 35° C. Additional doses of meperidine and/or chloropromazine are administered to maintain comfort and to prevent shivering. Active cooling and maintenance of hypothermia continues for up to five hours, after which subjects are actively re-warmed to a tympanic temperature of 36° C.
(§6) The presence of shivering is noted by physical examination, electromyographic artifact on continuous electrocardiography (ECG), or by subject report. Overall thermal comfort is evaluated at 15-min intervals with a 100-mm-long visual analog scale (VAS) on which 0 mm defines the worst imaginable cold, 50 mm identifies thermal neutrality, and 100 mm indicates unbearable heat. A new, unmarked scale is used for each assessment. Heart rate and oxyhemoglobin saturation are monitored using ECG and pulse oximetry; arterial blood pressure is recorded oscillometrically at 15-minute intervals.

For data set [5], the system named is healthy subjects. Kind of data set: Phases 1 and 3a taken together: haemodynamics, comfort, respiratory compromise, nausea. Here is the method: as §4, §5, §6, §1, §2
Where [6] appears, read: individual subjects, meperidine.
Where [7] appears, read: Phase 5, individual subjects, meperidine plus IV ondansetron 8 mg.
Setting [8] is: Phase 5, mean ± SD, 4 subjects, meperidine plus ondansetron.
[9] abbreviates: Phase 4, individual subjects, meperidine plus oral buspirone 30-60 mg.
The mark [10] stands for this setting: Phase 4, mean ± SD, 4 subjects, meperidine plus buspirone.

SMILES strings stand for the structures. Values joined by “and” are separate entries in the source; they are usually repeats but may differ in a detail not shown here. Equal values may be shown once.

With `O=C1CC2(CCCC2)CC(=O)N1CCCCN1CCN(c2ncccn2)CC1` [buspirone], the “Effect on incidence of nausea” value in the data set on healthy subjects [1] (in vivo) is “did not reduce the incidence of nausea”.
With `CCOC(=O)C1(c2ccccc2)CCN(C)CC1` [meperidine], the “Total Meperidine Dose” value in the data set on healthy subjects [2] (individual subjects, as needed to maintain comfort and prevent shivering, five hours) is 400 mg and 500 mg and 350 mg (2×) and 250 mg; in the data set with healthy subjects [3] (Phase 5, individual subjects, with IV ondansetron 8 mg), 275 mg and 250 mg and 325 mg and 375 mg; with healthy subjects [4] (Phase 1, individual subjects, given as needed to maintain comfort and prevent shivering, up to five hours), 275 mg and 375 mg and 475 mg and 75 mg and 200 mg; with healthy subjects [1] (Phase 4, individual subjects, with oral buspirone 30-60 mg), 250 mg (3×) and 400 mg. Moreover, the “Cooling rate to 35° C.” value with healthy subjects [2] (setting [6]) is 1.9 ° C./hr and .9 ° C./hr and 1.2 ° C./hr and 1.7 ° C./hr and 1.4 ° C./hr; in the data set with healthy subjects [3] (setting [7]), 1.5 ° C./hr and 1.4 ° C./hr and 1.6 ° C./hr and 1.9 ° C./hr; with healthy subjects [4] (Phase 1, individual subjects, meperidine for shivering suppression) it was 1.4 ° C./hr and 1.0 ° C./hr and 1.5 ° C./hr and 2.6 ° C./hr and 1.2 ° C./hr; with healthy subjects [1] (setting [9]) it was 1.1 ° C./hr (2×) and 1.9 ° C./hr and 0.8 ° C./hr. In addition, the “Nausea or Vomiting During Treatment” value in the data set on healthy subjects [2] (setting [6]) is “Nausea end (2×) and None and Nausea early, and Nausea, and vomiting mid”; in the data set with healthy subjects [3] (setting [7]), “None (2×) and Nausea post and Nausea and vomiting”; in the data set with healthy subjects [4] (Phase 1, individual subjects, meperidine), “Pruritis and None (4×)”; with healthy subjects [1] (setting [9]), “Nausea early, and Vomiting end and None and Nausea mid and Nausea end”. Moreover, the “Time to 35° C.” value was 64 min and 180 min and 95 min and 56 min and 53 min in the data set on healthy subjects [2] (individual subjects, tympanic temperature, IV meperidine 50-100 mg bolus plus additional doses, acetaminophen 1000 mg); 80 min and 58 min and 88 min and 60 min with healthy subjects [3] (setting [7]); 81 min and 105 min and 78 min and 41 min and 82 min in the data set on healthy subjects [4] (Phase 1, individual subjects, tympanic temperature, IV meperidine 25-75 mg bolus plus additional doses, acetaminophen 1000 mg, chlorpromazine in subjects 1 and 2); 105 min and 95 min and 63 min and 158 min in the data set on healthy subjects [1] (setting [9]). Moreover, the “Mean cooling rate to 35° C.” value in the data set on healthy subjects [2] (mean ± SD, 5 subjects) was 1.4±0.4 ° C./hr and 1.4 ± .4 ° C./hr; in the data set on healthy subjects [3] (setting [8]), 1.6 ° C./hr and 1.6 ± .2 ° C./hr; in the data set with healthy subjects [4] (Phase 1, mean ± SD, 5 subjects), 1.5±0.6 ° C./hr and 1.5 ± .6 ° C./hr; in the data set on healthy subjects [1] (setting [10]), 1.2 ± .5 ° C./hr. For the same molecule, the “Mean time to reach a tympanic temperature of 35° C.” value in the data set on healthy subjects [2] (mean ± SD, 5 subjects) was 90 ± 53 min; with healthy subjects [4] (Phase 1, mean ± SD, 5 subjects), 77+23 min and 77 ± 23 min. For the same molecule, the “Mean total dosage of meperidine” value with healthy subjects [2] (mean ± SD, 5 subjects) was 370 ± 91 mg and 370 mg; in the data set on healthy subjects [3] (Phase 5, mean ± SD, 4 subjects, with ondansetron) it was 306 ± 55 mg; in the data set on healthy subjects [4] (Phase 1, mean ± SD, 5 subjects), 280 ± 155 mg and 280 mg. The “Attainment of mild hypothermia” value in the data set with healthy subjects [3] (Phase 5) and in the data set with healthy subjects [4] (Phase 1) was “attained in all subjects” each time. In the data set with healthy subjects [3] (setting [8]), the “Mean time to reach a tympanic temperature of 35.0° C.” value was found to be 72 ± 15 min. The “Withdrawal of a subject for adverse reaction to meperidine” value in the data set on healthy subjects [3] (Phase 5, one of five enrolled, caused a facial rash) is “mild allergic reaction”. Besides, in the data set on healthy subjects [5] (180 min timepoint, baseline 122±13, p=0.042), the Systolic blood pressure was 140±20 mm Hg. Further, in the data set on healthy subjects [5] (Phases 1 and 3a), the Respiratory compromise entry was “no respiratory compromise is observed”. For the same molecule, the “Subjects in whom nausea is observed” value with healthy subjects [5] (Phases 1 and 3a, all cases in Phase 3a) is reported as 30%. In the data set on healthy subjects [5] (all subjects, during cooling), the “Change in blood oxygenation compared with baseline” value is “no statistically significant change”. The “Change in diastolic blood pressure compared with baseline” value with healthy subjects [5] (all subjects, during cooling) is “no statistically significant change”. Besides, the “Change in heart rate compared with baseline” value in the data set with healthy subjects [5] (all subjects, during cooling) is reported as “no statistically significant change”. The “Mean time to 35° C.” value in the data set on healthy subjects [1] (setting [10]) came out at 105 ± 39 min. Moreover, the “Mean total meperidine dose” value with healthy subjects [1] (Phase 4, mean ± SD, 4 subjects, with buspirone) stood at 288 ± 75 mg.
Turning to `Cc1nccn1CC1CCc2c(c3ccccc3n2C)C1=O` (stereo not drawn) [ondansetron], in the data set on healthy subjects [3] (p=0.26, t-test, ondansetron 8 mg IV), the “Meperidine administration in Phase 5 relative to Phase 3a” value is given as “trend toward less meperidine administration”.
